Experimental data published in patent publication US10259810B2, “N-sulfonylated pyrazolo[3,4-b]pyridin-6-carboxamides and method of use” (AbbVie S.à.r.l., priority 2015, dated 2019).

Key:
Format in all cases: cell-based
ΔF508-CFTR [1] = target: T1, ΔF508-CFTR (Homo sapiens, UniProt P13569, DEL508-508); assay: CFTR cell surface levels using HRP-tagged ΔF508-CFTR expressing CFBE cells, in the presence of a co-corrector; settings: HRP-tagged ΔF508-CFTR CFBE cells, in the presence of 3 μM co-corrector; for EC50: read-out: EC50
T1 construct: host or cells: CFBE41o-, doxycycline-inducible
T1 sequence (P13569 with tags, fused parts or gaps DEL508-508): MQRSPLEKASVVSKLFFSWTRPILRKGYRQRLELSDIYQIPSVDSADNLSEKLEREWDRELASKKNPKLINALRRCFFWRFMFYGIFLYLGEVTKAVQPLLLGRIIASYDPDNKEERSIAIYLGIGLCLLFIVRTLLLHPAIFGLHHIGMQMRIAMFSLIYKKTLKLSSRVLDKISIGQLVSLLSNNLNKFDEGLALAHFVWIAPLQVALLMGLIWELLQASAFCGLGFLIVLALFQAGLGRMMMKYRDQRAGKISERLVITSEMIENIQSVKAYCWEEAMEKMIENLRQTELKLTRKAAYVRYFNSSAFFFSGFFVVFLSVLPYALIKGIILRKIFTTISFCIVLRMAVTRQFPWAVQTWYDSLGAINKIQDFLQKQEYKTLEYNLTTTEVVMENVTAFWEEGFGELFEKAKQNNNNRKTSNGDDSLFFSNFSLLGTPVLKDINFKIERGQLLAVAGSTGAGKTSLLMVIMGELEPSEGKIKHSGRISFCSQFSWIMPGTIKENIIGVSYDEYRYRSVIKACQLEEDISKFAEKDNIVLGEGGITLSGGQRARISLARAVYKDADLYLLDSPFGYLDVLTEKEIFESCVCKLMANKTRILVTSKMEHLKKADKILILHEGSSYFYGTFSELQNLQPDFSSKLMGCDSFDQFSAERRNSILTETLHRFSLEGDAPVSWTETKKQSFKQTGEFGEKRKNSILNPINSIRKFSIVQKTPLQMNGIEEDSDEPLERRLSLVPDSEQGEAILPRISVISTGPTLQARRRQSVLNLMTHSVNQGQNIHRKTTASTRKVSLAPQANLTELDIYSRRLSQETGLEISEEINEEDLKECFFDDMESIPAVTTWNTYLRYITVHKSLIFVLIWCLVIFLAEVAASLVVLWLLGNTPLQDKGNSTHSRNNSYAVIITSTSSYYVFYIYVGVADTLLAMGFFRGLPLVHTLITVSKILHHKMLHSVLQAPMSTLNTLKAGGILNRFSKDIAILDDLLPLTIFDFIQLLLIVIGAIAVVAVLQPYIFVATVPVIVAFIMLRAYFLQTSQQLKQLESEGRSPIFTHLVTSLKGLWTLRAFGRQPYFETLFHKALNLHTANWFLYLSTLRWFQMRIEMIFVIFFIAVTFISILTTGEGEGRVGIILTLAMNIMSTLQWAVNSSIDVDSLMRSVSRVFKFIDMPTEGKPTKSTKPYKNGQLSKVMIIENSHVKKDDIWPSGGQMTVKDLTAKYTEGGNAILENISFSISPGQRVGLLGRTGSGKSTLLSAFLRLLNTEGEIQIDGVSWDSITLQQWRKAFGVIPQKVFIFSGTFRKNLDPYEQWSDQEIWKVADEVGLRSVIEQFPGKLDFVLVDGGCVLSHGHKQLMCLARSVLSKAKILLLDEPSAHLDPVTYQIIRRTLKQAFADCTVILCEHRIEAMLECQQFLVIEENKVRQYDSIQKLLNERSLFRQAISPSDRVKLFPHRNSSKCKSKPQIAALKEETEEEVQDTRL
Procedure, shortened: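 Chemiluminescent read-out of surface HRP (15 min, dark) after PBS washes. Activity is normalized as 100×(sample−DMSO)/(3 μM co-corrector alone−DMSO).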

ΔF508-CFTR [2] = target: T1, ΔF508-CFTR; assay: CFTR cell surface levels using HRP-tagged ΔF508-CFTR expressing CFBE cells, intrinsic corrector capacity; parameters: % Activation: concentration or dose not given beside the values; settings: HRP-tagged ΔF508-CFTR expressing CFBE41o- cells, compound alone (intrinsic corrector capacity), 20 hours at 33° C.; for EC50: read-out: EC50
Procedure, shortened: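 Read-out: chemiluminescent HRP activity of ECL4-HRP-tagged ΔF508-CFTR at the cell surface, 15 min substrate in dark. Normalized as 100×(sample−DMSO)/(positive control−DMSO).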

CFTR ΔF508 = target: T2, CFTR ΔF508 (Homo sapiens, UniProt P13569, DEL508-508); assay: Chronic TECC assay, primary bronchial epithelial cells of CF patients homozygous for CFTR ΔF508 (corrector, co-corrector and potentiator); settings: chronic TECC, AUC = full area under the curve upon forskolin stimulation; for % Activity at 1 μM (AUC**): test compound at 1 μM; for EC50: read-out: EC50 (nM) (AUC**)
T2 construct: bronchial epithelial cells isolated from CF patients homozygous for the CFTR ΔF508 mutation; McGill University; Asterand; University of North Carolina hAEC-CF; host or cells: primary human bronchial epithelial cells from CF patients homozygous for ΔF508, differentiated at air-liquid interface
T2 sequence (P13569 with tags, fused parts or gaps DEL508-508): as above
Procedure, shortened: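 Primary bronchial epithelial cells from ΔF508-homozygous CF patients on collagen IV-coated Transwells were chronically treated with test compound plus corrector and potentiator, which were re-added before recording. Ieq was derived from PD and Rt in NaCl-Ringer, pH 7.4, at 37° C, with apical amiloride and bilateral forskolin, recorded every 2 min over 20 min. Ieq increase was normalized to controls, and EC50 was taken from per-well concentrations.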

Compound | % Activation (ΔF508-CFTR [1]) [%] | EC50 (ΔF508-CFTR [1]) [nM] | % Activation (ΔF508-CFTR [2]) [%] | EC50 (ΔF508-CFTR [2]) [nM] | % Activity at 1 μM (AUC**) (CFTR ΔF508) [%] | EC50 (CFTR ΔF508) [nM]
CS(=O)(=O)NC(=O)c1cc(OCCN2CCS(=O)(=O)CC2)c2c(C3CCC3)nn(-c3ccccc3)c2n1 [Compound 243, 3-cyclobutyl-4-[2-(1,1-dioxo-1λ^6,4-thiazinan-4-yl)ethoxy]-N-(methanesulfonyl)-1-phenyl-1H-pyrazolo[3,4-b]pyridine-6-carboxamide] | 204.1 | 3330 | 78.11 | 3340 | 165.81 | 
CS(=O)(=O)NC(=O)c1cc(N2CCC(CO)CC2)c2c(C3CCC3)nn(-c3ccccc3)c2n1 [Compound 244, 3-cyclobutyl-4-[4-(hydroxymethyl)piperidin-1-yl]-N-(methanesulfonyl)-1-phenyl-1H-pyrazolo[3,4-b]pyridine-6-carboxamide] | 290.6 | 413 | 182.7 | 381 | 238.89 | 
COCC1CCN(c2cc(C(=O)NS(=O)(=O)c3cnn(C)c3)nc3c2c(C2CCC2)nn3-c2ccccc2)CC1 [Compound 245, 3-cyclobutyl-4-[4-(methoxymethyl)piperidin-1-yl]-N-(1-methyl-1H-pyrazole-4-sulfonyl)-1-phenyl-1H-pyrazolo[3,4-b]pyridine-6-carboxamide] | 460 | 694 | 228 | 495 | 628.25 | 
COCCN(CCOC)c1ccc(-c2cc(C(=O)NS(C)(=O)=O)nc3c2c(C2CCC2)nn3-c2ccccc2)cn1 [Compound 246, 4-{6-[bis(2-methoxyethyl)amino]pyridin-3-yl}-3-cyclobutyl-N-(methanesulfonyl)-1-phenyl-1H-pyrazolo[3,4-b]pyridine-6-carboxamide] | 331.65 | 77.3 | 112.1 | 371 | 301.36 | 61
COCC1(OC)CCN(c2cc(C(=O)NS(C)(=O)=O)nc3c2c(C2CCC2)nn3-c2ccccc2)CC1 [Compound 247, 3-cyclobutyl-N-(methanesulfonyl)-4-[4-methoxy-4-(methoxymethyl)piperidin-1-yl]-1-phenyl-1H-pyrazolo[3,4-b]pyridine-6-carboxamide] | 281.7 | 221 | 126.8 | 460 | 422.93 | 81
COCC1CCN(c2cc(C(=O)NS(C)(=O)=O)nc3c2c(C(C)C)nn3-c2ccnc(N3CCOCC3)c2)CC1 [Compound 248, N-(methanesulfonyl)-4-[4-(methoxymethyl)piperidin-1-yl]-1-[2-(morpholin-4-yl)pyridin-4-yl]-3-(propan-2-yl)-1H-pyrazolo[3,4-b]pyridine-6-carboxamide] | 450.6 | 221 | 234.6 | 371 | 275.96 | 
COCCS(=O)(=O)NC(=O)c1cc(N2CCC(COC)CC2)c2c(C(C)C)nn(-c3ccnc(N4CCOCC4)c3)c2n1 [Compound 249, N-(2-methoxyethanesulfonyl)-4-[4-(methoxymethyl)piperidin-1-yl]-1-[2-(morpholin-4-yl)pyridin-4-yl]-3-(propan-2-yl)-1H-pyrazolo[3,4-b]pyridine-6-carboxamide] | 468.15 | 231 | 187.6 | 371 | 271.29 | 
COCC1CCN(c2cc(C(=O)NS(=O)(=O)c3cn(C)c(C)n3)nc3c2c(C2CCC2)nn3-c2ccccc2)CC1 [Compound 250, 3-cyclobutyl-N-(1,2-dimethyl-1H-imidazole-4-sulfonyl)-4-[4-(methoxymethyl)piperidin-1-yl]-1-phenyl-1H-pyrazolo[3,4-b]pyridine-6-carboxamide] | 440.4 | 372 | 232.7 | 514 | 331.21 | 
